The text below walks through data of patent US11059786B2, “Aminopyridine compounds and methods for the preparation and use thereof” (Cortexyme, Inc., priority 2017, dated 2021).

T1 sequence (P95493 230-664): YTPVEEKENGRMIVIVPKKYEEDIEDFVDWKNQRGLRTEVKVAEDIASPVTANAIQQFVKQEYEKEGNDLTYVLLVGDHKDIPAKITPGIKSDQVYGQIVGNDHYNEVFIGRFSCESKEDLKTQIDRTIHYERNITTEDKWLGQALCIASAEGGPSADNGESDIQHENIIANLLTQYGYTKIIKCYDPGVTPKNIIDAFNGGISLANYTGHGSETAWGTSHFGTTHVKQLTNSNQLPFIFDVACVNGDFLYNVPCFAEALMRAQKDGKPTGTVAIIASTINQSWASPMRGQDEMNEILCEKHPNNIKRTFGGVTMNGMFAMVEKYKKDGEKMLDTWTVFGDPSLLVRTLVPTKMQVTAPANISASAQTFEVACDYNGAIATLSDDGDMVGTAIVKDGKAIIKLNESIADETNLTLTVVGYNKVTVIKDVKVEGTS

The first test has as its target T1, RgpB (Porphyromonas gingivalis, UniProt P95493).
T1 construct: 0.02 nM RgpB, isolated from culture of Porphyromonas gingivalis; endogenous in cells
The test is described as follows: RgpB inhibition, fluorogenic assay. In kind it is biochemical. The conditions noted are these: Activity (RgpB IC50), 0.02 nM RgpB, 10 μM Boc-Phe-Ser-Arg-MCA, 90 minutes, 37° C., pH=7.5. Here is the method:
The capacities of compounds of the present invention to inhibit the activity of RgpB were measured in a fluorogenic assay similar to those described in Barret Biochemical Journal. 1980, 187(3), 909. The specific assay conditions were as follows. Buffer: pH=7.5, 100 mM Tris-HCl, 75 mM NaCl, 2.5 mM CaCl2, 10 mM cysteine, 1% DMSO after all additions. Protein: 0.02 nM RgpB, isolated from culture of Porphyromonas gingivalis, as described in Pike et al. J. Biol. Chem. 1994, 269(1), 406, and Potempa and Nguyen. Current Protocols in Protein Scienc. 2007, 21.20.1-21.20.27. Fluorogenic substrate: 10 μM Boc-Phe-Ser-Arg-MCA. Time=90 minutes. Temperature=37° C. Each compound: 10 concentrations, starting at either 100 μM or 100 nM, with lower concentrations generated by serial 3-fold dilutions. By testing a range of concentrations for each compound, the concentration required to inhibit the activity of RgpB by 50% (the “IC50”) was determined.
In general, IC50 refers to the midpoint of a concentration-inhibition curve. As to `CN(C#N)Cc1ccc2c(N)nccc2c1` [Compound 26, N-((1-aminoisoquinolin-6-yl)methyl)-N-methylcyanamide], the concentration for half-maximal inhibition (IC50) fell in the range of 100 to 1000 nM.

`N#CN1CCC(Oc2ccnc(N)c2)CC1` [Compound 8, 4-((2-aminopyridin-4-yl)oxy)piperidine-1-carbonitrile] showed an IC50 greater than 100000 nM.

`N#CN1CCC[C@H]1/C=C/c1ccnc(N)c1` [Compound 32, (S,E)-2-(2-(2-aminopyridin-4-yl)vinyl)pyrrolidine-1-carbonitrile] had a 50% inhibitory concentration (IC50) of 100 to 1000 nM.

The compound `N#CN1CCC1COc1ccnc(N)c1` (stereo not drawn) [Compound 11, 2-(((2-aminopyridin-4-yl)oxy)methyl)azetidine-1-carbonitrile] displayed a concentration for half-maximal inhibition (IC50) greater than 100000 nM.

For the compound `N#CN1CCC[C@H]1COc1cc(N)ncc1Br` [Compound 30, (S)-2-(((2-amino-5-bromopyridin-4-yl)oxy)methyl)pyrrolidine-1-carbonitrile], the half-inhibitory concentration (IC50) is 10000 to 100000 nM.

For `CN(C#N)CCOc1ccnc(N)c1` [Compound 13, N-(2-((2-aminopyridin-4-yl)oxy)ethyl)-N-methylcyanamide], the half-maximal inhibitory concentration (IC50) was 100 to 1000 nM.

In turn, `CN(C#N)c1ccc2ccnc(N)c2c1` [Compound 1, N-(1-aminoisoquinolin-7-yl)-N-methylcyanamide] showed an IC50 greater than 100000 nM.

Compound `COC(C)(C)C(=O)NC(Cc1ccc(N)nc1)C(=O)COc1c(F)ccc(F)c1F` (stereo not drawn) [Compound 62, N-(1-(6-aminopyridin-3-yl)-3-oxo-4-(2,3,6-trifluorophenoxy)butan-2-yl)-2-methoxy-2-methylpropanamide] had a half-maximal inhibitory concentration (IC50) of 100 to 1000 nM.

As for `Nc1ccc(CC(NC(=O)C2CCCC2)C(=O)COc2ccon2)cn1` (stereo not drawn) [Compound 68, N-(1-(6-aminopyridin-3-yl)-4-(isoxazol-3-yloxy)-3-oxobutan-2-yl)cyclopentanecarboxamide], the half-inhibitory concentration (IC50) is less than 100 nM.

In turn, `N#CN1CCC[C@H]1COc1cc(N)ncc1Cl` [Compound 41, (S)-2-(((2-amino-5-chloropyridin-4-yl)oxy)methyl)pyrrolidine-1-carbonitrile] had an IC50 of 10000 to 100000 nM.

Consider `COC(C)(C)C(=O)NC(Cc1ccnc(N)c1)C(=O)COc1c(F)ccc(F)c1F` (stereo not drawn) [Compound 64, N-(1-(2-aminopyridin-4-yl)-3-oxo-4-(2,3,6-trifluorophenoxy)butan-2-yl)-2-methoxy-2-methylpropanamide], for which the concentration for half-maximal inhibition (IC50) was in the range of 100 to 1000 nM.

`N#CN1C[C@H](O)C[C@@H]1c1ccc2c(N)nccc2c1` [Compound 49, (2R,4R)-2-(1-aminoisoquinolin-6-yl)-4-hydroxypyrrolidine-1-carbonitrile] showed an IC50 of less than 100 nM.

For the compound `COC(C)(C)C(=O)NC(Cc1ccc(N)nc1)C(=O)COc1c(F)c(F)cc(F)c1F` (stereo not drawn) [Compound 60, N-(1-(6-aminopyridin-3-yl)-3-oxo-4-(2,3,5,6-tetrafluorophenoxy)butan-2-yl)-2-methoxy-2-methylpropanamide], the IC50 was less than 100 nM.

In the case of `Nc1ccc(C[C@@H](NC(=O)C2CCCC2)C(=O)COc2c(F)c(F)cc(F)c2F)cn1` [Compound 57, (R)—N-(1-(6-aminopyridin-3-yl)-3-oxo-4-(2,3,5,6-tetrafluorophenoxy)butan-2-yl)cyclopentanecarboxamide], the concentration for half-maximal inhibition (IC50) is less than 100 nM.

Compound `CN(C#N)C(COc1ccnc(N)c1)c1ccccc1` (stereo not drawn) [Compound 36, N-(2-((2-aminopyridin-4-yl)oxy)-1-phenylethyl)-N-methylcyanamide] gave an IC50 of 1000 to 10000 nM.

Turning to `CC(c1ccc2c(N)nccc2c1)N(C)C#N` (stereo not drawn) [Compound 46, N-(1-(1-aminoisoquinolin-6-yl)ethyl)-N-methylcyanamide], the IC50 is 1000 to 10000 nM.

As to `CC(C)N(C#N)CCCc1ccnc(N)c1` [Compound 6, N-(3-(2-aminopyridin-4-yl)propyl)-N-isopropylcyanamide], the IC50 is 10000 to 100000 nM.

In turn, `N#CN(CCOc1ccnc(N)c1)C1CCCCC1` [Compound 40, N-(2-((2-aminopyridin-4-yl)oxy)ethyl)-N-cyclohexylcyanamide] returned a 50% inhibitory concentration (IC50) of 10000 to 100000 nM.

For the compound `CNc1nccc2cc([C@H]3CCCN3C#N)ccc12` [Compound 51b, (R)-2-(1-(methylamino)isoquinolin-6-yl)pyrrolidine-1-carbonitrile], the IC50 was 10000 to 100000 nM.

Regarding `N#CN1CCC[C@H]1CSc1ccnc(N)c1` [Compound 28, (S)-2-(((2-aminopyridin-4-yl)thio)methyl)pyrrolidine-1-carbonitrile], the IC50 was 1000 to 10000 nM.

`Nc1cc(CC(NC(=O)C2CCCC2)C(=O)COc2c(F)c(F)cc(F)c2F)ccn1` (stereo not drawn) [Compound 54, N-(1-(2-aminopyridin-4-yl)-3-oxo-4-(2,3,5,6-tetrafluorophenoxy)butan-2-yl)cyclopentanecarboxamide] returned a 50% inhibitory concentration (IC50) of less than 100 nM.

With `N#CN1CCC(Sc2ccnc(N)c2)C1` (stereo not drawn) [Compound 38, 3-((2-aminopyridin-4-yl)thio)pyrrolidine-1-carbonitrile], the 50% inhibitory concentration (IC50) lay within 10000 to 100000 nM.

As to `CCC(COc1ccnc(N)c1)N(C)C#N` (stereo not drawn) [Compound 35, N-(1-((2-aminopyridin-4-yl)oxy)butan-2-yl)-N-methylcyanamide], the 50% inhibitory concentration (IC50) fell in the range of 1000 to 10000 nM.

In turn, `N#CN1CCC(CCOc2ccnc(N)c2)C1` (stereo not drawn) [Compound 17, 3-(2-((2-aminopyridin-4-yl)oxy)ethyl)pyrrolidine-1-carbonitrile] showed an IC50 of 1000 to 10000 nM.

`N#CN1CCCCC1c1ccc2c(N)nccc2c1` (stereo not drawn) [Compound 37, 2-(1-aminoisoquinolin-6-yl)piperidine-1-carbonitrile] came in with a 50% inhibitory concentration (IC50) of 100 to 1000 nM.

As to `N#CN1CCCC1CCCOc1ccnc(N)c1` (stereo not drawn) [Compound 18, 2-(3-((2-aminopyridin-4-yl)oxy)propyl)pyrrolidine-1-carbonitrile], the 50% inhibitory concentration (IC50) was in the range of 10000 to 100000 nM.

For the compound `N#CN1C[C@@H](O)C[C@H]1c1ccc2c(N)nccc2c1` [Compound 50a, (2S,4S)-2-(1-aminoisoquinolin-6-yl)-4-hydroxypyrrolidine-1-carbonitrile], the IC50 was less than 100 nM.

Turning to `CNc1cc(OCC2CCCN2C#N)ccn1` (stereo not drawn) [Compound 22, 2-(((2-(methylamino)pyridin-4-yl)oxy)methyl)pyrrolidine-1-carbonitrile], the IC50 lay in the range of 100 to 1000 nM.

Regarding `N#CN1CCC[C@@H]1COc1ccnc(N)c1` [Compound 20, (R)-2-(((2-aminopyridin-4-yl)oxy)methyl)pyrrolidine-1-carbonitrile], the IC50 is 1000 to 10000 nM.

Take `N#CN1CCCC(Oc2ccnc(N)c2)C1` (stereo not drawn) [Compound 9, 3-((2-aminopyridin-4-yl)oxy)piperidine-1-carbonitrile]: the IC50 fell in the range of 100 to 1000 nM.

Turning to `N#CN1CCCC1COc1ccnc(N)c1` (stereo not drawn) [Compound 3, 2-(((2-aminopyridin-4-yl)oxy)methyl)pyrrolidine-1-carbonitrile], the IC50 lay in the range of 100 to 1000 nM.

Regarding `Nc1ccc(CC(NC(=O)C2CCCC2)C(=O)COc2c(F)cccc2F)cn1` (stereo not drawn) [Compound 67, N-(1-(6-aminopyridin-3-yl)-4-(2,6-difluorophenoxy)-3-oxobutan-2-yl)cyclopentanecarboxamide], the half-inhibitory concentration (IC50) is less than 100 nM.

The compound `N#CN1CC(COc2ccnc(N)c2)C1` [Compound 10, 3-(((2-aminopyridin-4-yl)oxy)methyl)azetidine-1-carbonitrile] yielded an IC50 greater than 100000 nM.

Take `CC(C)N(C#N)CCOc1ccnc(N)c1` [Compound 39, N-(2-((2-aminopyridin-4-yl)oxy)ethyl)-N-isopropylcyanamide]: the IC50 lay within 10000 to 100000 nM.

The compound `Nc1cc(CC(NC(=O)C2CCCC2)C(=O)COc2c(F)cccc2F)ccn1` (stereo not drawn) [Compound 55, N-(1-(2-aminopyridin-4-yl)-4-(2,6-difluorophenoxy)-3-oxobutan-2-yl)cyclopentanecarboxamide] came in with an IC50 of less than 100 nM.

In the case of `Nc1cc(CC(NC(=O)C2CCCC2)C(=O)COc2c(F)ccc(F)c2F)ccn1` (stereo not drawn) [Compound 69, N-(1-(2-aminopyridin-4-yl)-3-oxo-4-(2,3,6-trifluorophenoxy)butan-2-yl)cyclopentanecarboxamide], the IC50 is less than 100 nM.

`N#CN1CCC(COc2ccnc(N)c2)C1` (stereo not drawn) [Compound 47, 3-(((2-aminopyridin-4-yl)oxy)methyl)pyrrolidine-1-carbonitrile] displayed an IC50 of 1000 to 10000 nM.

Take `N#CN1CCC[C@H]1COc1ccnc(N)c1` [Compound 19, (S)-2-(((2-aminopyridin-4-yl)oxy)methyl)pyrrolidine-1-carbonitrile]: the IC50 is less than 100 nM.

As to `N#CN1Cc2ccccc2C1COc1ccnc(N)c1` (stereo not drawn) [Compound 25, 1-(((2-aminopyridin-4-yl)oxy)methyl)isoindoline-2-carbonitrile], the half-maximal inhibitory concentration (IC50) was 100 to 1000 nM.

In the case of `COC(C)(C)C(=O)NC(Cc1ccc(N)nc1)C(=O)COc1ccon1` (stereo not drawn) [Compound 59, N-(1-(6-aminopyridin-3-yl)-4-(isoxazol-3-yloxy)-3-oxobutan-2-yl)-2-methoxy-2-methylpropanamide], the IC50 is 100 to 1000 nM.

Compound `Nc1cc(CC(NC(=O)C2CCCC2)C(=O)COc2ccon2)ccn1` (stereo not drawn) [Compound 70, N-(1-(2-aminopyridin-4-yl)-4-(isoxazol-3-yloxy)-3-oxobutan-2-yl)cyclopentanecarboxamide] returned an IC50 of 100 to 1000 nM.

Staying with this test, now noted: Activity (RgpB IC50), compound not tested above 1 μM; 0.02 nM RgpB, 10 μM Boc-Phe-Ser-Arg-MCA, 90 minutes, 37° C.
In the case of `COC(C)(C)C(=O)NC(Cc1ccnc(N)c1)C(=O)COC(C(F)(F)F)C(F)(F)F` (stereo not drawn) [Compound 73, N-(1-(2-aminopyridin-4-yl)-4-((1,1,1,3,3,3-hexafluoropropan-2-yl)oxy)-3-oxobutan-2-yl)-2-methoxy-2-methylpropanamide], the concentration for half-maximal inhibition (IC50) is greater than 1000 nM.
